According to patent publication US10100058B2, “Fused heterocyclic compounds as CaM kinase inhibitors” (Gilead Sciences, Inc., priority 2016, dated 2018):

Target: recombinant CaMKIIδ (Homo sapiens (Human), UniProt Q13557)
Experiment: CaMKIIδ biochemical assay (HTRF)
Details: 10 pM CaMKIIδ, 110 nM calmodulin, 12 μM ATP, 1 hour; read-out: CAMKIID-HTRF-384V2 (IC50 - nM)
Experimental: CaMKIIδ Biochemical Assay
The biochemical activity of recombinant CaMKIIδ was measured by monitoring the phosphorylation of a target peptide using Homogenous Time Resolved Fluorescence (HTRF) technology from CisBio Bioassays.

Structure (SMILES) | IC50
NC[C@@H]1CCCCN1C(=O)c1cc(Cl)nc(-c2cnn3ccc(-c4ccccc4)nc23)c1 [Example 133, (S)-(2-(aminomethyl)piperidin-1-yl)(2-chloro-6-(5-phenylpyrazolo[1,5-a]pyrimidin-3-yl)pyridin-4-yl)methanone] | 163 nM
COc1cc(C(=O)N2CCCC[C@H]2CN)cc(-c2cnn3ccc(-c4ccccc4)nc23)n1 [Example 134, (S)-(2-(aminomethyl)piperidin-1-yl)(2-methoxy-6-(5-phenylpyrazolo[1,5-a]pyrimidin-3-yl)pyridin-4-yl)methanone] | 303 nM
CN(C)c1cc(C(=O)N2CCCC[C@H]2CN)cc(-c2cnn3ccc(-c4ccccc4)nc23)n1 [Example 135, (S)-(2-(aminomethyl)piperidin-1-yl)(2-(dimethylamino)-6-(5-phenylpyrazolo[1,5-a]pyrimidin-3-yl)pyridin-4-yl)methanone] | 761 nM
Cc1cnc(-c2cnn3ccc(-c4ccccc4)nc23)cc1C(=O)N1CCCC[C@@H]1CN [Example 136, (R)-(2-(aminomethyl)piperidin-1-yl)(5-methyl-2-(5-phenylpyrazolo[1,5-a]pyrimidin-3-yl)pyridin-4-yl)methanone] | 0.84 nM
NC[C@H]1CCCCN1C(=O)c1cc(-c2cnn3ccc(-c4ccccc4)nc23)ncc1Cl [Example 137, (R)-(2-(aminomethyl)piperidin-1-yl)(5-chloro-2-(5-phenylpyrazolo[1,5-a]pyrimidin-3-yl)pyridin-4-yl)methanone] | 1.82 nM
NC[C@H]1CCCCN1C(=O)c1cc(-c2cnn3ccc(-c4ccccc4)nc23)ncc1N [Example 138, (R)-(5-amino-2-(5-phenylpyrazolo[1,5-a]pyrimidin-3-yl)pyridin-4-yl)(2-(aminomethyl)piperidin-1-yl)methanone] | 0.4 nM
CNc1cnc(-c2cnn3ccc(-c4ccccc4)nc23)cc1C(=O)N1CCCC[C@@H]1CN [Example 139, (R)-(2-(aminomethyl)piperidin-1-yl)(5-(methylamino)-2-(5-phenylpyrazolo[1,5-a]pyrimidin-3-yl)pyridin-4-yl)methanone] | 0.87 nM
Cc1cnc(-c2cnn3ccc(-c4ccccc4)nc23)cc1C(=O)N1CCCC[C@@H]1[C@@H](C)N [Example 140, ((R)-2-((R)-1-aminoethyl)piperidin-1-yl)(5-methyl-2-(5-phenylpyrazolo[1,5-a]pyrimidin-3-yl)pyridin-4-yl)methanone] | 1.91 nM
CCN(CC)[C@@H](C)CNC(=O)c1cc(-c2cnn3ccc(-c4cccs4)nc23)nc(N2CC(C(F)(F)F)C2)c1 [Example 147, (S)—N-(2-(diethylamino)propyl)-2-(5-(thiophen-2-yl)pyrazolo[1,5-a]pyrimidin-3-yl)-6-(3-(trifluoromethyl)azetidin-1-yl)isonicotinamide] | 0.34 nM
CCN(CC)[C@@H](C)CNC(=O)c1cc(-c2cnn3ccc(-c4cccs4)nc23)nc(N2CC(S(=O)(=O)NC3CC3)C2)c1 [Example 151, (S)-2-(3-(N-cyclopropylsulfamoyl)azetidin-1-yl)-N-(2-(diethylamino)propyl)-6-(5-(thiophen-2-yl)pyrazolo[1,5-a]pyrimidin-3-yl)isonicotinamide] | 0.32 nM
CCN(CC)[C@@H](C)CNC(=O)c1cc(-c2cnn3ccc(-c4cccs4)nc23)nc(N2CC(C)(C)C2)c1 [Example 152, (S)—N-(2-(diethylamino)propyl)-2-(3,3-dimethylazetidin-1-yl)-6-(5-(thiophen-2-yl)pyrazolo[1,5-a]pyrimidin-3-yl)isonicotinamide] | 0.59 nM
CCN(CC)[C@@H](C)CNC(=O)c1cc(-c2cnn3ccc(-c4cccs4)nc23)nc(N2CCn3ccnc3C2)c1 [Example 155, (S)—N-(2-(diethylamino)propyl)-2-(5,6-dihydroimidazo[1,2-a]pyrazin-7(8H)-yl)-6-(5-(thiophen-2-yl)pyrazolo[1,5-a]pyrimidin-3-yl)isonicotinamide] | 0.32 nM
CCN(CC)[C@@H](C)CNC(=O)c1cc(-c2cnn3ccc(-c4cccs4)nc23)nc(N2CCC(O)C(F)(F)C2)c1 (stereo partly drawn) [Example 156, N—((S)-2-(diethylamino)propyl)-2-(3,3-difluoro-4-hydroxypiperidin-1-yl)-6-(5-(thiophen-2-yl)pyrazolo[1,5-a]pyrimidin-3-yl)isonicotinamide] | 0.85 nM
CCN(CC)[C@@H](C)CNC(=O)c1cc(NCCN(C)C)nc(-c2cnn3ccc(-c4ccccc4)nc23)c1 [Example 158, (S)—N-(2-(diethylamino)propyl)-2-((2-(dimethylamino)ethyl)amino)-6-(5-phenylpyrazolo[1,5-a]pyrimidin-3-yl)isonicotinamide] | 0.56 nM
COC1CN(c2cc(C(=O)NCC3(N)CCC3)cc(-c3cnn4ccc(-c5ccccc5)nc34)n2)C1 [Example 159, N-((1-aminocyclobutyl)methyl)-2-(3-methoxyazetidin-1-yl)-6-(5-phenylpyrazolo[1,5-a]pyrimidin-3-yl)isonicotinamide] | 84.6 nM
CCN(CC)[C@@H](C)CNC(=O)c1cc(-c2cnn3ccc(-c4ccccc4)nc23)nc(N2CC(OC)C2)c1 [Example 160, (S)—N-(2-(diethylamino)propyl)-2-(3-methoxyazetidin-1-yl)-6-(5-phenylpyrazolo[1,5-a]pyrimidin-3-yl)isonicotinamide] | 1.15 nM
COC1CN(c2cc(C(=O)NCC34CCCN3CCC4)cc(-c3cnn4ccc(-c5ccccc5)nc34)n2)C1 [Example 161, N-((hexahydro-1H-pyrrolizin-7a-yl)methyl)-2-(3-methoxyazetidin-1-yl)-6-(5-phenylpyrazolo[1,5-a]pyrimidin-3-yl)isonicotinamide] | 105 nM
CCN(CC)[C@@H](C)CNC(=O)c1cc(NCC2(N3CCCC3)COC2)nc(-c2cnn3ccc(-c4cccs4)nc23)c1 [Example 164, (S)—N-(2-(diethylamino)propyl)-2-(((3-(pyrrolidin-1-yl)oxetan-3-yl)methyl)amino)-6-(5-(thiophen-2-yl)pyrazolo[1,5-a]pyrimidin-3-yl)isonicotinamide] | 0.38 nM

Now those with a lower IC50, led by results:

IC50 | Structure (SMILES)
0.28 nM | CCN(CC)[C@@H](C)CNC(=O)c1cc(-c2cnn3ccc(-c4cccs4)nc23)nc(N2CC(NS(=O)(=O)C3CC3)C2)c1 [Example 154, (S)-2-(3-(cyclopropanesulfonamido)azetidin-1-yl)-N-(2-(diethylamino)propyl)-6-(5-(thiophen-2-yl)pyrazolo[1,5-a]pyrimidin-3-yl)isonicotinamide]
0.21 nM | CCN(CC)[C@@H](C)CNC(=O)c1cc(-c2cnn3ccc(-c4cccs4)nc23)nc(N2CC(F)(F)C2)c1 [Example 148, (S)—N-(2-(diethylamino)propyl)-2-(3,3-difluoroazetidin-1-yl)-6-(5-(thiophen-2-yl)pyrazolo[1,5-a]pyrimidin-3-yl)isonicotinamide]
0.2 nM | CCN(CC)[C@@H](C)CNC(=O)c1cc(-c2cnn3ccc(-c4cccs4)nc23)nc(N2CC(S(=O)(=O)NC)C2)c1 [Example 150, (S)—N-(2-(diethylamino)propyl)-2-(3-(N-methylsulfamoyl)azetidin-1-yl)-6-(5-(thiophen-2-yl)pyrazolo[1,5-a]pyrimidin-3-yl)isonicotinamide]
0.19 nM | CCN(CC)[C@@H](C)CNC(=O)c1cc(-c2cnn3ccc(-c4cccs4)nc23)nc(N2CCC2)c1 [Example 146, (S)-2-(azetidin-1-yl)-N-(2-(diethylamino)propyl)-6-(5-(thiophen-2-yl)pyrazolo[1,5-a]pyrimidin-3-yl)isonicotinamide]
0.18 nM | CCN(CC)[C@@H](C)CNC(=O)c1cc(-c2cnn3ccc(-c4cccs4)nc23)nc(N2CC(OC(F)F)C2)c1 [Example 144, (S)—N-(2-(diethylamino)propyl)-2-(3-(difluoromethoxy)azetidin-1-yl)-6-(5-(thiophen-2-yl)pyrazolo[1,5-a]pyrimidin-3-yl)isonicotinamide]
0.18 nM | CCN(CC)[C@@H](C)CNC(=O)c1cc(-c2cnn3ccc(-c4cccs4)nc23)nc(N2CCC(C)(O)CC2)c1 [Example 163, (S)—N-(2-(diethylamino)propyl)-2-(4-hydroxy-4-methylpiperidin-1-yl)-6-(5-(thiophen-2-yl)pyrazolo[1,5-a]pyrimidin-3-yl)isonicotinamide]
0.17 nM | CCOC1CN(c2cc(C(=O)NC[C@H](C)N(CC)CC)cc(-c3cnn4ccc(-c5cccs5)nc34)n2)C1 [Example 143, (S)—N-(2-(diethylamino)propyl)-2-(3-ethoxyazetidin-1-yl)-6-(5-(thiophen-2-yl)pyrazolo[1,5-a]pyrimidin-3-yl)isonicotinamide]
0.14 nM | CCN(CC)[C@@H](C)CNC(=O)c1cc(-c2cnn3ccc(-c4cccs4)nc23)nc(N2CC(S(C)(=O)=O)C2)c1 [Example 149, (S)—N-(2-(diethylamino)propyl)-2-(3-(methylsulfonyl)azetidin-1-yl)-6-(5-(thiophen-2-yl)pyrazolo[1,5-a]pyrimidin-3-yl)isonicotinamide]
0.13 nM | CCN(CC)[C@@H](C)CNC(=O)c1cc(-c2cnn3ccc(-c4cccs4)nc23)nc(N2CC(F)C2)c1 [Example 153, (S)—N-(2-(diethylamino)propyl)-2-(3-fluoroazetidin-1-yl)-6-(5-(thiophen-2-yl)pyrazolo[1,5-a]pyrimidin-3-yl)isonicotinamide]
0.1 nM | CCN(CC)[C@@H](C)CNC(=O)c1cc(-c2cnn3ccc(-c4cccs4)nc23)nc(N2CC(C#N)C2)c1 [Example 142, (S)-2-(3-cyanoazetidin-1-yl)-N-(2-(diethylamino)propyl)-6-(5-(thiophen-2-yl)pyrazolo[1,5-a]pyrimidin-3-yl)isonicotinamide]
0.07 nM | CCN(CC)[C@@H](C)CNC(=O)c1cc(NCCN(C)C)nc(-c2cnn3ccc(-c4cccs4)nc23)c1 [Example 157, (S)—N-(2-(diethylamino)propyl)-2-((2-(dimethylamino)ethyl)amino)-6-(5-(thiophen-2-yl)pyrazolo[1,5-a]pyrimidin-3-yl)isonicotinamide]
